target: T1, Muscarinic acetylcholine receptor M4 (Homo sapiens, UniProt P08173); assay: Binding Assay
T1 sequence (P08173 whole entry): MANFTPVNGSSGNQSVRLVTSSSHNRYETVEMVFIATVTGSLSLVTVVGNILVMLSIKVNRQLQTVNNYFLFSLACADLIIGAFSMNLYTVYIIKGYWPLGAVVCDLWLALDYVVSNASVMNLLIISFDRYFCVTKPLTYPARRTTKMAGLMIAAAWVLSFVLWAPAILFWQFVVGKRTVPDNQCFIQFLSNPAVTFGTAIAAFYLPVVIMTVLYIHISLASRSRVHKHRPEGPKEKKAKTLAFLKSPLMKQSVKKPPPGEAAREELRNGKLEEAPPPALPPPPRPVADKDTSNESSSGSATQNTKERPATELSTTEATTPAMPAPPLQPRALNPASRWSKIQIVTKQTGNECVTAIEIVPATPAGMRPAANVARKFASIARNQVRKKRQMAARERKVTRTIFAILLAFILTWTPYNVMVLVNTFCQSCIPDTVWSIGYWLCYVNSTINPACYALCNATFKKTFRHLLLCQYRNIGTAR
Protocol: Binding affinity (Ki) for the compounds was measured by inhibition of radioligand binding to membranes from CHO cells expressing human M4 receptor. Membranes were prepared by nitrogen cavitation and differential centrifugation as previously described (Hoare et al., Mol. Pharmacol. 2003 March; 63(3): 751-65). The radioligand employed was tritiated N-methylscopolamine, used at a concentration of 1.5 nM. A dose-response of twelve concentrations of compound was used, […]. The assay buffer was 50 mM HEPES, 100 mM NaCl, 5 mM MgCl2, 1 mM ethylenediaminetetraacetic acid, pH-adjusted to pH 7.4. Membranes, radioligand and compound were incubated together for 90 minutes at 37° C., in a total volume of 150 μL in a 96-well plate. Receptor-bound radioligand was then collected by harvesting the assay over glass fiber filters pretreated with polyethylenimine to trap the cell membranes, using rapid vacuum filtration. Harvesting and radioactivity counting was conducted as previously described (see, e.g., Hoare et al., Mol. Pharmacol. 2003 63(3):751-65); Erratum at Mol. Pharmacol. 2005 July; 68(1): 260).

Row | Ki [nM] | SMILES
1 | < 100 | C[C@@H]1CN(c2ncc(S(=O)(=O)C(F)F)cn2)C[C@H](C)N1C(=O)OC1CC2(C1)CN(Cc1ccccc1)C2 [US20250092022, Compound 41]
2 | < 100 | C[C@@H]1CN(c2ncc(S(=O)(=O)C3CC3)cn2)C[C@@H](C)N1C(=O)OC1CC2(C1)CN(Cc1ccccc1)C2 [US20250092022, Compound 19]
3 | < 100 | Cc1nc(N2C[C@@H](C)N(C(=O)OC3CC4(C3)CN(Cc3ccccc3)C4)[C@@H](C)C2)ncc1S(C)(=O)=O [US20250092022, Compound 40]
4 | > 500 | C[C@@H]1CN(c2ncc(OCCO)cn2)C[C@H](C)N1C(=O)OC1CC2(C1)CN(Cc1ccccc1)C2 [US20250092022, Compound 52]

Reference: BindingDB's records for patent US20250092022 (Neurocrine Biosciences, 2025)
